Literature values in patent publication US20170014318A9, “Hair-growth-promoting solution containing chlorine dioxide, preparation methods and using methods thereof” (priority 2011, published 2017).

Legend:
[1] = tested on: mice
[2] = tested on: skin and eye mucous; details: solution containing 9.7 to 11.4 mg/L of chlorine dioxide
[3] = 276.5 mg/L aqueous solution
[4] = 276.5 mg/L aqueous solution; remark: listed apart in the source

| Molecule | oral LD50 [1] | 48 hour skin and eye mucous irritating score [2] | toxicity of aqueous solution [3] | accumulated toxicity [4] |
| --- | --- | --- | --- | --- |
| stable chlorine dioxide | > 10000 mg/kg | – | – | – |
| [O][Cl+][O-] [chlorine dioxide] | – | 0 | actually non-toxic | no significant accumulated toxicity |
